Source: paper PMC3653934, “Identification of Adiponectin Receptor Agonist Utilizing a Fluorescence Polarization Based High Throughput Assay” (PLoS ONE, 2013)
Where two headings read alike, the source gives them in different places. Where a SMILES comes first, the peptide text is derived from it. [ ]: non-standard residue; d: D form. Nva = CCC[C@H](N)C(=O)O

T1: AdipoR2 (UniProt Q86V24)
T1 sequence (Q86V24 1-386): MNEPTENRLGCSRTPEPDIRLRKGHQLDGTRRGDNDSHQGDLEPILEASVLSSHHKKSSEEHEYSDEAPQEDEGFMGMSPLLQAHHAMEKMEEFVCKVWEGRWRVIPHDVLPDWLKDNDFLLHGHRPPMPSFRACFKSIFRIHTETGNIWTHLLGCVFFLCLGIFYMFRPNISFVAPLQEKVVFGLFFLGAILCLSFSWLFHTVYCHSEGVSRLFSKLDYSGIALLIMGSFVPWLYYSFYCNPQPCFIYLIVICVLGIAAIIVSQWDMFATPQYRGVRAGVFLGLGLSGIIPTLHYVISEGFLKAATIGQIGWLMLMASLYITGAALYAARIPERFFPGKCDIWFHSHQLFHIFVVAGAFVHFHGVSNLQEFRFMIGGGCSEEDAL

T2: AdipoR1 (Homo sapiens, UniProt Q96A54)
T2 construct: The cDNAs encoding full-length of AdipoR1 or AdipoR2 were then sub-cloned into the mammalian expression vector pBEX and pcDNA3.1–Myc-His(+); His (C); Myc (C); made in house; host or cells: CHO cells
T2 sequence (Q96A54 1-375): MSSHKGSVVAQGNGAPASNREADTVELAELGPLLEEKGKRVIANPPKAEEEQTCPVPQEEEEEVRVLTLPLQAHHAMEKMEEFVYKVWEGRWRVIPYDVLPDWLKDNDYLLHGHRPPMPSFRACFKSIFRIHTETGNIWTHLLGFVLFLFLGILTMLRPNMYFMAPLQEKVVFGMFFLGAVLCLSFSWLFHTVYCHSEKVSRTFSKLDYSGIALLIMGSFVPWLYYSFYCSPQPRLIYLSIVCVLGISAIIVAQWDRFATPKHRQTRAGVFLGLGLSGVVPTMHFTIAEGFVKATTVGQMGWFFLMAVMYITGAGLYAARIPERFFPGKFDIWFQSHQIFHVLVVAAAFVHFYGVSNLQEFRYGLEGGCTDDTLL

B1: g-Ad: recombinant carboxyl-terminal globular domain of adiponectin with C-terminal His-tag, produced in BL21(DE3) cells; positive control (protein)
chain: GEGAYVYRSAFSVGLETYVTIPNMPIRFTKIFYNQQNHYDGSTGKFHCNIPGLYYFAYHITVYMKDVKVSLFKKDKAMLFTYDQYQENNVDQASGSVLLHLEVGDQVWLQVYGEGERNGLYADNDNDSTFTGFLLYHDTN
modifications: C-terminal His-tag left out

Key:
[1] = target: T1, AdipoR2; test: Competitive FP assay, displacement of probe 1 from AdipoR2; type: binding, human
Procedure: (§1) Unlabeled short peptide 3 was titrated against the FITC-labeled peptide and adiponectin receptor mixture. Plates were incubated at room temperature for up to 3 hours or 30 min at different temperatures. FP values were taken and IC50 values were calculated.
(§2) Master mixtures containing fluorescein-labeled probe 1 and adiponectin receptor (AdipoR1 or AdiopR2, 2 µM and probe 1 at 100 nM) in a reaction volume of 19 µl were prepared and loaded to plates. The library compounds (10 µM –0.078 µM, half dilutions) were prepared separately and transferred into the assay plates. The first and last columns of each plate were used as positive and negative control wells. Wells containing the drug only were used as controls to detect auto-fluorescence of the compounds in the total fluorescence assay. After subtraction of the background signal, data was processed and the IC50 values were determined by non-linear least square fitting using SigmaPlot 11.0.
(§3) Given that the present study is a screening study, peptide 3 was chosen as the positive control for cost-efficiency purposes.
(§4) To optimize the FP assay properly, it was necessary to assess the stability of the FP assay. The conditions for the FP assay were established by testing various parameters including incubation temperature, time, TF values, ΔmP values, and DMSO tolerance. […] In summary, the competitive FP binding assay conditions ideal for identifying adiponectin receptor agonists are: i) 2 µM adiponectin receptor, ii) 100 nM probe 1, iii) 5% final DMSO concentration (v/v), and iv) incubation for 30 min at 25°C before reading the plate.
(§5) A pilot screen against the natural product library of 10,000 compounds described above was performed at screening concentrations of 10 µM to 0.078 µM (half serial dilutions) in 5% DMSO (v/v). Controls present in each assay plate consisted of 5% DMSO (negative control) or peptide 3 (positive control).
(§6) We screened a library of 10,000 natural compounds for adiponectin agonists. […] 46 compounds that could generate IC50 curves were identified as initial hits.

[2] = target: T2, AdipoR1; test: Competitive FP assay, displacement of probe 1 from AdipoR1; type: binding
Procedure: as §1, §2, §3, §4, §5, §6

[3] = test system: MCF-7 cells; test: Cell viability assay (CellTiter-Blue) in MCF-7 cells; type: cell-based; settings: Homo sapiens, read-out: IC50 (µM) MCF-7 cells, cell viability
Procedure: (§7) All cell lines were obtained from the American Type Culture Collection (ATCC). MCF-7 and MDA-MB-231 cells were maintained in DMEM containing 10% fetal bovine serum and supplied with 1% penicillin/streptomycin. All cells were maintained in a 5% CO2 atmosphere at 37°C.
(§8) The effects of the lead compounds on cell proliferation were tested in MCF-7 and MDA-MB-231 cells. Cells were grown to 80% confluence, harvested and aliquoted into 384-well plates in a total volume of 45 µl per well. The outer wells were inoculated with sterile water to minimize evaporation from the sample wells. Cells were allowed to attach overnight and 5 µl culture media containing either vehicles or drug were added. Cell proliferation was evaluated using CellTilter-Blue reagent (Promega, China) according to manufacturer’s instructions after 72-h incubation. Fluorescence was measured with an excitation at 530 nm and emission at 590 nm. After background subtraction, cell viability values were normalized to vehicle controls and expressed as percentage of the mean of the relative vehicle controls.
(§9) To further confirm the agonistic activity of hit compounds, MDA-MB-231 and MCF-7 cells were treated with different concentrations of g-Ad or drug (20 µM to 1.2 nM) for 72 hours and cell viability was measured. Thus, four compounds (arctiin, (-)-arctigenin, matairesinol and gramine) that show agonistic activity against adiponectin receptor 1 and four compounds (deoxyschizandrin, taxifoliol, syringing and parthenolide) that show agonistic activity against adiponectin receptor 2 were identified.

[4] = test system: PPARα phosphorylation (AdipoR2 signaling) in MCF-7 cells; test: Western blot of PPARα phosphorylation in MCF-7 cells; type: cell-based, human; settings: MCF-7 cells treated at IC50 concentration for 6 h
Procedure: (§10) Cells were grown to 80% confluence, harvested and aliquoted into 100 mm dishes in serum free media. Cells were allowed to attach overnight and then the serum free media was removed and then cells were washed in PBS twice. Different doses of compounds were prepared in the normal media and added to different dishes for an additional 6 h. Cells were washed 3 times with ice-cold PBS and cell lysates were prepared by scraping cells into lysis buffer A (RIPA buffer, 2 mM dithiothreitol […], 1×Halt protease inhibitor cocktail (Thermo scientific), and 1×Halt phosphatase inhibitor cocktail (Thermo scientific)). The cells were allowed to swell on ice (5 min), after which the homogenate was centrifuged. The supernatants were transferred to fresh tubes and protein concentrations were determined using the Bio-Rad protein assay (Bio-Rad Laboratories, Inc.) per manufacturer’s instructions. Aliquots of the cell lysates were stored at −80°C.
(§11) Equal amounts of total protein (50 µg) were subjected to electrophoresis (10% tris-HCl, 1.0 mm gels) and transferred to nitrocellulose membranes. Membranes were blocked in TBS containing 0.05% Tween 20 (TBST) and 5% nonfat milk or 5% BSA for 1 hour at room temperature. Appropriately diluted primary antibodies were incubated in TBST/5% nonfat milk or TBST/5% BSA for 2 h at room temperature or overnight at 4 °C. Membranes were washed in TBST three times for 15 min each. Appropriately diluted secondary antibodies were incubated in superblock blocking buffers (Thermo Scientific) for 1 h at room temperature. Membranes were washed in TBST three times for 15 min. Proteins were detected by Amersham™ ECL plus western blotting detection system (GE healthcare). The following antibodies were used: anti-AdipoR1 M18, anti-AdipoR2 C12 (Santa Cruz Biotechnology, Santa Cruz, CA), anti-p-AMPKα(T172), anti-AMPKα, and anti-β-actin (Cell Signaling, Danvers, MA).
(§12) It is well established that adiponectin activates AMPK and p38 MAPK through AdipoR1 or PPARα through AdipoR2 to mediate its downstream signaling cascades, [9], [12], [14]. […] The levels of phosphorylation of AMPK and phosphorylation of PPARα were examined and the relative expression levels of the phospho-protein to the total expression of protein levels were quantified using ImageJ software (NIH) ( Fig. 3 ).
(§13) Figure 3 Effects of hit compounds on adiponectin receptor signaling pathways. […] A total 50 µg of cell lysate was loaded to each lane. Western blot was performed follow the protocol in materials and methods section.

[5] = test system: MDA-MB-231 cells; test: Cell viability assay (CellTiter-Blue) in MDA-MB-231 cells; type: cell-based; settings: Homo sapiens, read-out: IC50 (µM) MDA-MB-231 cells, cell viability
Procedure: as §7, §8, §9

[6] = test system: AMPK phosphorylation (AdipoR1 signaling) in MDA-MB-231 cells; test: Western blot of AMPK phosphorylation in MDA-MB-231 cells; type: cell-based, human; settings: MDA-MB-231 cells treated at IC50 concentration for 6 h
Procedure: as §10, §11, §12, §13

[7] = primary screen, 2 µM receptor, 100 nM probe 1, 30 min, 25°C, read-out: IC50 vs AdipoR1 (µM) Primary screen
[8] = validation, 2 µM receptor, 100 nM probe 1, 30 min, 25°C, read-out: IC50 vs AdipoR1 (µM) Validated
[9] = primary screen, 2 µM receptor, 100 nM probe 1, 30 min, 25°C, read-out: IC50 vs AdipoR2 (µM) Primary screen
[10] = validation, 2 µM receptor, 100 nM probe 1, 30 min, 25°C, read-out: IC50 vs AdipoR2 (µM) Validated

| Molecule | IC50 [2, 7] | IC50 [2, 8] | IC50 [1, 9] | IC50 [1, 10] | IC50 ([3]; MCF7, 72 h) | Effect on PPARα phosphorylation level [4] | IC50 ([5]; MDA-MB-231, 72 h) | Effect on AMPK phosphorylation [6] | further results |
| --- | --- | --- | --- | --- | --- | --- | --- | --- | --- |
| O=c1cc(-c2ccccc2)oc2cc(O)cc(O)c12 [Compound 8, Chrysin] | > 5 µM | > 5 µM |  |  |  |  |  |  | IC50 ([1]; read-out: IC50 vs AdipoR2 (µM) Primary screen, primary screen, 2 µM receptor, 100 nM probe 1, 30 min, 25°C): 4.9 µM; IC50 ([1]; read-out: IC50 vs AdipoR2 (µM) Validated, validation, 2 µM receptor, 100 nM probe 1, 30 min, 25°C): > 5 µM; IC50 vs AdipoR2 (µM) Validated ([1]; validation, 2 µM receptor, 100 nM probe 1, 30 min, 25°C): failed in the validation |
| COc1cc(C[C@H]2C(=O)OC[C@@H]2Cc2ccc(OC)c(OC)c2)ccc1O [Compound 2, (-)-Arctigenin] | 2.6 µM | 2.2 ± 0.8 µM | > 5 µM | > 5 µM | > 10 µM | inhibited | 4.5 ± 0.4 µM | elevated |  |
| COc1cc(/C=C/CO)cc(OC)c1O[C@@H]1O[C@H](CO)[C@@H](O)[C@H](O)[C@H]1O [Compound 5, Syringin] |  |  | 4.6 µM | 4.5 ± 0.5 µM | 6.8 ± 0.8 µM | increased | > 10 µM | decreased | IC50 [2]: > 5 µM; IC50 ([2]; read-out: IC50 vs AdipoR1 (µM) Validated, validation, 2 µM receptor, 100 nM probe 1, 30 min, 25°C): > 5 µM |
| O=C1c2c(O)cc(O)cc2O[C@H](c2ccc(O)c(O)c2)[C@H]1O [Compound 6, Taxifoliol] |  |  |  |  |  | increased |  | decreased | IC50 ([3]; MCF7, 72 h, 20 µM to 1.2 nM): 4.4 ± 0.5 µM; IC50 ([5]; MDA-MB-231, 72 h, 20 µM to 1.2 nM): > 10 µM |
| CCC[C@H](NC(=O)[C@@H]1CCCN1C(=O)[C@@H](NC(=O)[C@H](N)CC(N)=O)[C@@H](C)CC)C(=O)N[C@@H](CC(C)C)C(=O)N[C@@H](Cc1ccc(O)cc1)C(=O)N[C@H](CO)C(=O)N[C@@H](Cc1ccccc1)C(=O)N[C@@H](C)C(=O)N[C@H](CO)C(N)=O [Peptide 3, H-DAsn-Ile-Pro-Nva-Leu-Tyr-DSer-Phe-Ala-DSer-NH2, reference compound] (H-[dN]IP[Nva]LY[dS]FA[dS]-NH2) |  |  |  |  |  |  |  |  | IC50 ([1]; positive control validation, titrated against probe 1 – AdipoR2 mixture, read-out: IC50 against AdipoR2, competition with probe 1): 2.46 ± 0.25 µM |
| B1 |  |  |  |  |  |  |  |  | IC50 ([2]; positive control validation, titrated against probe 1 – AdipoR1 mixture, read-out: IC50 against AdipoR1, competition with probe 1): 3.4 ± 0.7 µM |
